pEC50: −log10 of the molar value. Calls of active or inactive are those of the source.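 How the source made its calls: active means EC50 no more than a set limit of log units above the highest dose; inactive means the rest.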
biological target: S. pyogenes SKKanGAS, kanamycin survival, BacTiterGlo, 6 h; test: SKKanGAS survival reduction under kanamycin, dose response, streptokinase promoter inhibitor project, SKKanGAS strain, luminescence, dose confirmation (AID 1902);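 further: lower survival reflects blocked streptokinase promoter driving kanamycin resistance gene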

Row | Structure (SMILES) | pEC50 | EC50
1 | CN(C)[C@@H]1C(=O)C(C(N)=O)=C(O)[C@@]2(O)C(=O)C3=C(O)c4c(O)cccc4[C@@](C)(O)C3[C@H](O)C12 (stereo partly specified) | 7.02 | –
2 | Cc1cc(NC(=O)CN2C(=O)c3ccccc3C2=O)no1 | – | > 15000 nM (inactive)
3 | Cc1nc(=S)c2c([nH]1)-c1ccccc1CC21CCCCC1 | 6.02 | –
4 | CC(C)[C@H](NC(=O)N1CC(=O)Nc2ccccc21)C(=O)N[C@@H](Cc1ccccc1)C(=O)O | – | > 15000 nM (inactive)
5 | C[C@H]1c2cccc(O)c2C(O)=C2C(=O)[C@]3(O)C(O)=C(C(N)=O)C(=O)[C@@H](N(C)C)C3[C@@H](O)C21 (stereo partly specified) | > 7.22 | –
6 | O=C(O)c1ccc(N/N=C/c2ccc(OC(=O)c3ccccc3Cl)cc2)cc1 | 5.30 | –
7 | COc1ccccc1/C=C/c1ccc2cccc(O)c2n1 | 5.93 | –
8 | Cc1cc(C)c[n+](C2=C([O-])c3ccccc3C(=O)/C2=N\S(=O)(=O)c2cccs2)c1 | 5.73 | –
9 | COc1cc([N+](=O)[O-])cc(/C=N/NC(=O)C(C)Nc2cccc(C)c2)c1O (stereo unspecified) | 5.05 | –
10 | COc1cc(/C=C/c2ccc3cccc(O)c3n2)c(Br)cc1O | 6.46 | –
11 | O=C(O)CCCNc1cc(N2CCN(C(=O)c3ccco3)CC2)c2noc3c2c1C(=O)c1ccccc1-3 | 5.22 | –
12 | CC1CCc2c(sc3nc(C(C)(C)C)nc(N4CCN(C(=O)CCl)CC4)c23)C1 (stereo unspecified) | 5.44 | –
13 | C/C(N)=C(/C#N)C(=O)CSc1nc2scc(-c3ccc(F)cc3)c2c(=O)n1C | 5.68 | –
14 | O=C(NNC1=C(C(=O)C(F)(F)F)CCC1)c1cccc(Cl)c1 | 6.03 | –
15 | COc1ccc(/C=N/NC(=O)Cc2csc(Nc3cccc(C(F)(F)F)c3)n2)cc1C | 5.40 | –
16 | FC(F)(F)Oc1ccc(NC(=S)Nc2ccc(OC(F)(F)F)cc2)cc1 | 5.19 | –
17 | CCN1CCN(Cc2ccc(NC(=O)c3cc(NC(=O)c4cc(-c5ccc(OC)cc5)n[nH]4)cc(OC)c3)cc2C(F)(F)F)CC1 | 5.37 | –
18 | Cc1ccc2sc(NNC(=O)c3cc(-c4cccs4)nc4ccccc34)nc2c1C | 6.07 | –
19 | O=C(CSc1ccc(-c2ccc(Cl)cc2)nn1)NC1CCCC1 | – | > 15000 nM (inactive)
20 | CC[C@H]1OC(=O)[C@H](C)[C@@H](O[C@H]2C[C@@](C)(OC)[C@@H](O)[C@H](C)O2)[C@H](C)[C@@H](O[C@@H]2O[C@H](C)C[C@H](N(C)C)[C@H]2O)[C@](C)(O)C[C@@H](C)C(=O)[C@H](C)[C@@H](O)[C@]1(C)O | > 7.22 | –
21 | C=C1SC(=Nc2ccccc2Cl)N(C(=O)c2sc3ccccc3c2Cl)C12CCCCC2 | 5.46 | –
22 | NS(=O)(=O)c1ccc(N2N=C(c3ccc(Br)cc3)CC2c2ccc(F)cc2)cc1 (stereo unspecified) | 5.66 | –
23 | Oc1c(C(c2ccccn2)N2CCCCC2)cc(Cl)c2cccnc12 (stereo unspecified) | 5.05 | –
24 | CCCCC(=O)O[C@H]1CC[C@H]2[C@@H]3CCc4cc(O)ccc4[C@H]3CC[C@]12C | 5.42 | –
25 | Cc1sc2ncnc(N3CCC(C(=O)NCC(=O)Nc4ccc(F)c(F)c4)CC3)c2c1C | 5.30 | –
26 | O=C(CNC(=O)c1ccc2c(c1)OCO2)N/N=C/c1cc(Br)ccc1O | 5.62 | –

Row | Structure (SMILES) | pEC50 | EC50
27 | c1ccc(-c2noc(-c3ccccc3-c3ccccc3)n2)cc1 | 5.43 | –
28 | COc1ccc(O)c(-c2cc(-c3cccc(Br)c3)n[nH]2)c1 | 5.00 | –
29 | O=[N+]([O-])c1ccc(S(=O)(=O)Nc2ccc(-c3csc(-c4ccccc4)n3)cc2)cc1 | 5.55 | –
30 | Cc1cccc(NC(=O)c2nc[nH]c2C(=O)N[C@@H](CCCCNC(=O)OC(C)(C)C)C(=O)OC(C)(C)C)c1 | 5.55 | –
31 | NC(N)=N/N=C/c1ccc(OCc2ccccc2)c(OCc2ccccc2)c1 | 5.17 | –
32 | CC(/C=C/C=C/c1ccccc1)=N/NC(=O)c1ccc2c(c1)OCCO2 | – | > 15000 nM (inactive)
33 | Nc1nonc1-n1nnc(C(=O)N/N=C/c2cc(Br)ccc2O)c1CNc1ccccc1 | 6.40 | –
34 | O=C1C(NS(=O)(=O)c2cccs2)=C(N2CCN(c3cccc(C(F)(F)F)c3)CC2)C(=O)c2ccccc21 | 5.05 | –
35 | COC(=O)c1ccc(CSc2cc(C)c3cc(C)cc(C)c3n2)o1 | 5.31 | –
36 | O=C(Nc1nnc(-c2ccc(Br)cc2)o1)c1cccc(N2C(=O)CCC2=O)c1 | 5.87 | –
37 | O=C(Nc1ccccc1)c1nnsc1S(=O)c1ccc(Cl)cc1 (stereo unspecified) | 5.87 | –
38 | CC(C)(C)c1cc(NCc2ccccn2)n2ncc(-c3ccccc3)c2n1 | 6.77 | –
39 | N=C1SC(c2ccccc2)C(=O)N1c1ncc(Cc2ccccc2Cl)s1 (stereo unspecified) | 6.75 | –
40 | Cc1nn(-c2ccccc2)c(Cl)c1C1C(C#N)=C(N)Oc2c1c(=O)oc1ccccc21 (stereo unspecified) | 6.95 | –
41 | C/C(=N\NC(=S)NCc1ccccc1)c1cccc(Br)c1 | 5.26 | –
42 | O=C(Nc1ccc(Cl)c(Cl)c1)O/N=C/c1ccncc1 | 5.62 | –
43 | CCCCC[n+]1ccn(C2=C([O-])c3ccccc3C(=O)/C2=N\S(=O)(=O)c2ccc(Br)cc2)c1 | 5.54 | –
44 | Cc1c(CCC(=O)O)c(=O)oc2cc3occ(-c4ccc(Cl)cc4)c3cc12 | 5.46 | –
45 | COCCNC(=O)c1c(NC(=O)c2ccco2)n(Cc2ccccc2)c2nc3ccccc3nc12 | 5.07 | –
46 | COc1ccc(C(=O)NNC(=S)NC(=O)c2cccs2)cc1 | 5.66 | –
47 | Cc1cccc(OCC(=O)Nc2ccccc2N2CCCCC2)c1C | 5.32 | –
48 | COc1ccccc1C(NC(C)=O)c1cc(Cl)c2cccnc2c1O (stereo unspecified) | 5.54 | –
49 | CCOC(=O)c1csc(N/N=C2\CCCc3ccccc32)n1 | 4.96 | –
50 | CCCCc1c(C)nn(-c2nnc3c4ccccc4n(CC)c3n2)c1C | 5.73 | –
51 | N=C1/C(=C/c2cccs2)C(=O)N=C2SN=C(SCc3ccccc3)N12 | 5.74 | –

From PubChem BioAssay AID1902 (Broad Institute, 2009)
